In test [1] the test system is Ragweed, Common, Ambrosia artemisifolia. The test can be described thus: Postemergence herbicidal evaluation, AMBEL. In kind it is in vivo, L. The conditions noted are these: 0.0630 kg/ha. Put shortly:
(§1)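 Test compounds, formulated in equal parts acetone and water plus 0.5% TWEEN 20, are applied by nozzle (40 psi) to seedlings about two weeks old at roughly 0.0157–0.500 kg/ha. Injury is scored 0–9 visually 4–5 weeks later, with multiple tests averaged.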

The test system of test [2] is Corn, Field, Zea mays. The test can be described thus: Postemergence herbicidal evaluation, ZEAMX. The format is in vivo, L. The conditions noted are these: 0.0630 kg/ha. In short, it runs like this:
as §1

The test system of test [3] is Rice, Tebonnet, Oryza sativa. Nature of the test: Preemergence herbicidal evaluation, ORYSAT. In kind it is in vivo, (L.) Tebonnet. The conditions noted are these: 0.2500 kg/ha. The text has this:
(§2) Results of herbicide evaluation are expressed on a rating scale (0-9). The scale is based upon a visual observation of plant stand, vigor, malformation, size, chlorosis and overall plant appearance as compared with a control.
(§3) The preemergence herbicidal activity of the test compounds of the present invention is exemplified by the following tests in which the seeds of a variety of monocotyledonous and dicotyledonous plants are separately mixed with potting soil and planted on top of approximately one inch of soil in separate pint cups. After planting, the cups are sprayed with the selected aqueous acetone solution containing test compound in sufficient quantity to provide the equivalent of about 0.0156 to 0.500 kg per hectare of test compound per cup. The treated cups are then placed on greenhouse benches, watered and cared for in accordance with conventional greenhouse procedures. From four to five weeks after treatment, the tests are terminated and each cup is examined and rated according to the rating system provided in Example 185.
(§4) The compounds evaluated are reported by compound number given in Example 185.

The test system of test [4] is Soybean, Williams, Glycine max. The test can be described thus: Preemergence herbicidal evaluation, GLXMAW. In kind it is in vivo, (L.) Merr. cv Williams. The conditions noted are these: 0.2500 kg/ha.
Description: as §2, §3, §4

Test [5] concerns Ragweed, Common, Ambrosia artemisifolia. Nature of the test: Preemergence herbicidal evaluation, AMBEL. In kind it is in vivo, L. The conditions noted are these: 0.2500 kg/ha.
Description: as §2, §3, §4

The subject of test [6] is Morningglory, Ivyleaf, Ipomoea hederacea. The test can be described thus: Postemergence herbicidal evaluation, IPOHE. In kind it is in vivo, (L.) Jacq. The conditions noted are these: 0.0630 kg/ha. Put shortly: as §1
For test [7], the system named is Galium, Galium aparine. The test can be described thus: Preemergence herbicidal evaluation, GALAP. The format is in vivo. The conditions noted are these: 0.2500 kg/ha.
Description: as §2, §3, §4

Test [8] concerns Barnyardgrass, Echinochloa crus-galli. Nature of the test: Preemergence herbicidal evaluation, ECHCG. The format is in vivo, (L.) Beau. The conditions noted are these: 0.2500 kg/ha.
Description: as §2, §3, §4

The subject of test [9] is Corn, Field, Zea mays. The test can be described thus: Preemergence herbicidal evaluation, ZEAMX. The format is in vivo, L. The conditions noted are these: 0.2500 kg/ha.
Description: as §2, §3, §4

The subject of test [10] is Velvetleaf, Abutilon theophrasti. The test can be described thus: Preemergence herbicidal evaluation, ABUTH. The format is in vivo, Medic. The conditions noted are these: 0.2500 kg/ha.
Description: as §2, §3, §4

Test [11] has as its system Morningglory, Ivyleaf, Ipomoea hederacea. The test can be described thus: Preemergence herbicidal evaluation, IPOHE. In kind it is in vivo, (L.) Jacq. The conditions noted are these: 0.2500 kg/ha.
Description: as §2, §3, §4

Test [12] has as its system Sicklepod, Cassia obtusifolia. The test can be described thus: Postemergence herbicidal evaluation, CASOB. In kind it is in vivo, L. The conditions noted are these: 0.0630 kg/ha. In short, it runs like this:
as §1

The subject of test [13] is Soybean, Williams, Glycine max. Nature of the test: Postemergence herbicidal evaluation, GLXMAW. The format is in vivo, (L.) Merr. cv Williams. The conditions noted are these: 0.0630 kg/ha. Put shortly: as §1
Test [14] relates to Foxtail, Green, Setaria viridis. The test can be described thus: Preemergence herbicidal evaluation, SETVI. The format is in vivo, (L.) Beau. The conditions noted are these: 0.2500 kg/ha.
Description: as §2, §3, §4

The test system of test [15] is Lambsquarters, Common, Chenopodium album. The test can be described thus: Postemergence herbicidal evaluation, CHEAL. In kind it is in vivo, L. The conditions noted are these: 0.0630 kg/ha. In short, it runs like this:
as §1

For test [16] the test system is unchanged. Nature of the test: Preemergence herbicidal evaluation, CHEAL. In kind it is in vivo, L. The conditions noted are these: 0.2500 kg/ha.
Description: as §2, §3, §4

Test [17] deals with Galium, Galium aparine. The test can be described thus: Postemergence herbicidal evaluation, GALAP. The format is in vivo. The conditions noted are these: 0.0630 kg/ha. Put shortly:
as §1

Test [18] deals with Wheat, Winter, cv Riband, Triticum aestivum. The test can be described thus: Preemergence herbicidal evaluation, TRZAWR. The format is in vivo. The conditions noted are these: 0.2500 kg/ha.
Description: as §2, §3, §4

The subject of test [19] is Velvetleaf, Abutilon theophrasti. The test can be described thus: Postemergence herbicidal evaluation, ABUTH. In kind it is in vivo, Medic. The conditions noted are these: 0.0630 kg/ha. In short, it runs like this: as §1
Test [20] has as its system Foxtail, Green, Setaria viridis. The test can be described thus: Postemergence herbicidal evaluation, SETVI. In kind it is in vivo, (L.) Beau. The conditions noted are these: 0.0630 kg/ha. In short, it runs like this: as §1
Test [21] has as its system Rice, Tebonnet, Oryza sativa. Nature of the test: Postemergence herbicidal evaluation, ORYSAT. The conditions noted are these: 0.0630 kg/ha. The format is in vivo, (L.) Tebonnet. Put shortly: as §1
In test [22] the test system is Sicklepod, Cassia obtusifolia. The test can be described thus: Preemergence herbicidal evaluation, CASOB. In kind it is in vivo, L. The conditions noted are these: 0.2500 kg/ha.
Description: as §2, §3, §4

Test [23] relates to Wheat, Winter, cv Riband, Triticum aestivum. Nature of the test: Postemergence herbicidal evaluation, TRZAWR. The format is in vivo. The conditions noted are these: 0.0630 kg/ha. Put shortly: as §1
The subject of test [24] is Barnyardgrass, Echinochloa crus-galli. Nature of the test: Postemergence herbicidal evaluation, ECHCG. In kind it is in vivo, (L.) Beau. The conditions noted are these: 0.0630 kg/ha. In short, it runs like this: as §1

As for `COC(=O)C(C)Oc1c(C)cc(C)cc1-c1nsc2ccc(-n3c(=O)cc(C(F)(F)F)n(C)c3=O)cc12` (stereo not drawn) [Compound 27, Methyl 2-{{6-{5-[3,6-dihydro-3-methyl-2,6-dioxo-4-(trifluoromethyl)-1(2H)-pyrimidinyl]-1,2-benzisothiazol-3-yl}-2,4-xylyl}oxy}propionate], the “herbicide rating (0-9)” value in test [1] amounted to 9.0; with Corn, Field, Zea mays [2], 7.0; in [3], 2.0; in test [4], 9.0; in test [5] it was 9.0; in [6] it was 9.0. Besides, the “herbicide rating (0-9)” value in the test on Galium, Galium aparine [7] is on record as 2.0; in [8], 7.0; with Corn, Field, Zea mays [9], 4.0; in test [10], 9.0; in [11], 6.0; in [12], 4.0. Further, the “herbicide rating (0-9)” value in test [13] is 7.0; in test [14] it was 9.0; in test [15], 9.0; in test [16] it was 9.0; with Galium, Galium aparine [17], 9.0; in test [18] it was 5.0. For the same compound, the “herbicide rating (0-9)” value came to 9.0 in [19]; 7.0 in test [20]; 4.5 in test [21]; 9.0 in test [22]; 8.5 in test [23]; 7.0 in [24].
With `COC(=O)COc1c(C)cc(C)cc1-c1nsc2ccc(-n3c(=O)cc(C(F)(F)F)n(C)c3=O)cc12` [Compound 26, Methyl {{6-{5-[3,6-dihydro-3-methyl-2,6-dioxo-4-(trifluoromethyl)-1(2H)-pyrimidinyl]-1,2-benzisothiazol-3-yl}-2,4-xylyl}oxy}acetate], the “herbicide rating (0-9)” value in test [1] came out at 9.0; in the test on Corn, Field, Zea mays [2] it was 7.0; in test [3], 5.0; in [4], 6.0; in test [5], 9.0; in test [6] it was 9.0. The “herbicide rating (0-9)” value in the test on Galium, Galium aparine [7] is listed as 4.0; in [8], 7.0; with Corn, Field, Zea mays [9], 7.0; in test [10] it was 9.0; in [11] it was 7.0; in test [12], 6.0. Also, the “herbicide rating (0-9)” value in test [13] stood at 7.5; in test [14], 9.0; in test [15], 9.0; in [16], 9.0; in the test on Galium, Galium aparine [17] it was 9.0; in [18], 5.0. The “herbicide rating (0-9)” value in [19] worked out at 9.0; in test [20], 9.0; in test [21] it was 2.0; in [22], 9.0; in test [23], 8.0; in test [24] it was 9.0.

Values taken from patent US6156700A, “3-(1,2-Benzisothiazol- and isoxazol-5-yl)-2,4(1H,3H)-pyrimidinedione or thione and 3-(1,2-benzisothiazol- and isoxazol-5-yl)-4(3H)-pyrimidinone or thione herbicidal agents” (American Cyanmid Company, priority 1998, dated 2000).
